# Assay results from patent US10975087B2, “Solid forms of tetrahydropyranyl amino-pyrrolopyrimidinone compounds” (ArQule, Inc., priority 2018, dated 2021).
# Entries after “also recorded” stand apart in the source; their conditions may differ.
# Assays:
# Type in all cases: physicochemical
# [1] = 7 day stability testing, open vials at 40° C./75% RH, ambient and 80° C.; conditions: for Purity after 1 week (%) / area % purity and form changes after 1 week: open vials; for T = 0 purity (%): T = 0, before storage; for area % purity and form changes after 1 week: ambient, 40° C./75% RH and 80° C.
# [2] = Dynamic vapor sorption (DVS); conditions: for Post-DVS XRPD analysis (form): after exposure to elevated humidity; for moisture uptake by DVS: at 90% RH
# Procedure: Approximately 10-20 mg of sample was placed into a mesh vapor sorption balance pan and loaded into a DVS-1 dynamic vapor sorption balance by Surface Measurement Systems. […] After completion of the sorption cycle, the sample was dried using the same procedure to 0% RH and then a second sorption cycle back to 40% RH. Two cycles were performed. The weight change during the sorption/desorption cycles were plotted, allowing for the hygroscopic nature of the sample to be determined. XRPD analysis may be then carried out on any solid retained.
# [3] = Karl Fischer coulometric titration (KF) water content
# Procedure: Approximately 10-30 mg of solid material was accurately weighed into a vial. The solid was then manually introduced into the titration cell of a Mettler Toledo C30 Compact Titrator. The vial was back-weighed after the addition of the solid and the weight of the added solid entered on the instrument. Titration was initiated once the sample had fully dissolved in the cell. The water content was calculated automatically by the instrument as a percentage and the data printed.
# [4] = Thermodynamic solubility pH measurements; conditions: respective buffer, 25° C., 48 hours
# Procedure: After 2 hours at 25° C., the pH of each slurry was measured and the pH was adjusted, where required. After 24 hours at 25° C., the pH of each slurry was measured and the pH was adjusted, where required. After 48 hours at 25° C., the slurries were separated by centrifugation. The solids were analyzed by XRPD, while the pH of the separated liquors were also measured.
# [5] = Salt disproportionation studies (slurry in deionized water); conditions: 48 hours
# Procedure: Samples of salts described herein were prepared for disproportionation studies. Approximately 15 mg of the salt material was suspended in 4 mL of deionized water at ambient temperature (ca. 22° C.). The slurry of the salt was shaken at ambient temperature and analyzed after: 1 h, 24 h, and 48 h. Each sample was filtered using a centrifuge filter. The solid was analyzed by XRPD. pH measurements were performed for the solution (three pH measurements were carried out for each sample and the average pH was calculated).
# [6] = Long term stability testing at 25° C./60% RH
# Procedure: Long term stability testing was carried out for Form 1 at 25° C./60% RH. […] The water content was measured by KF analysis.
# Aqueous solubility = assay: Aqueous solubility
# Procedure: (§1) Aqueous and acetone solubility was carried out using 3-10 mg of material, depending on availability, and slurrying in 150-200 μL of acetone or 300 μL of deionized water. The samples were agitated at ambient temperature then filtered by centrifugation (0.22 μm nylon filter) after ca. 24 hours and the solids analyzed by XRPD as damp solids. The filtrates were analyzed by HPLC for concentration determination. The water solubility was too low for detection using the current analytical method.
# [7] = Gravimetric vapor sorption (GVS)
# Procedure: Approximately 10-20 mg of sample was placed into a mesh vapor sorption balance pan and loaded into an IGASorp Moisture Sorption Analyzer balance by Hiden Analytical. The sample was subjected to a ramping profile from 40-90% relative humidity (RH) at 10% increments, maintaining the sample at each step until a stable weight had been achieved (98% step completion). After completion of the sorption cycle, the sample was dried using the same procedure to 0% RH, and finally taken back to the starting point of 40% RH. Two cycles were performed. The weight change during the sorption/desorption cycles were plotted, allowing for the hygroscopic nature of the sample to be determined.
# [8] = Accelerated stability testing at 40° C./75% RH for 6 months
# Procedure: Accelerated stability testing was carried out for Form 1 at 40° C./75% RH for 6 months. […] The water content was measured by KF analysis.
# Competitive slurrying = conditions: under the conditions assessed
# Procedure: Approximately 5 mg of each form (Form 1 and Form 4, Form 1 and Form 8, and Form 4 and Form 8) was weighed and agitated at ambient and 50° C. in minimal acetone, ethanol, diisopropyl ether (DIPE) and acetonitrile. Approximately 8 drops of each solvent was added and the samples were then agitated for ca. 48 hours, before being analyzed by XRPD. Table 9 details the conditions.
# Acetone solubility = assay: Acetone solubility
# Procedure: as §1
# [9] = Variable temperature X-ray powder diffraction (VT-XRPD)
# Procedure: VT-XRPD analysis was carried out on a Philips X'Pert Pro Multipurpose diffractometer. The samples were scanned between 4 and 35.99° 2θ using Cu K radiation (α1 λ=1.54060 Å; α2=1.54443 Å; β=1.39225 Å; α1:α2 ratio=0.5) running in Bragg-Brentano geometry (step size 0.008° 2θ) using 40 kV/40 mA generator settings. Measurements were performed at each step of the temperature profile: 30° C. initial scan, 150° C., 200° C., 210° C., 230° C., and 30° C., final scan.
# [10] = acetone, ambient temperature, ca. 24 hours
smiles,measurement,setting,value
O=C(c1ccc(Oc2ccccc2)cc1Cl)c1c[nH]c2ncnc(N[C@@H]3CC[C@@H](CO)OC3)c12.O=S(=O)(O)CCS(=O)(=O)O [edisylate Form 1],XRPD analysis after storage for 1 week,"[1]; 40° C./75% RH, 80° C., and ambient temperature, 1 week",no change in form from the input material
same,Purity after 1 week (%),"[1]; 40° C./75% RH, 1 week",98.1%
same,Purity after 1 week (%),"[1]; 80° C., 1 week",97.5%
same,Purity after 1 week (%),"[1]; Ambient, 1 week",97.9%
same,T = 0 purity (%),[1],97.9%
same,area % purity and form changes after 1 week,[1]; 1 week,no decrease in area % purity or form changes
same,Post-DVS XRPD analysis (form),[2],no change in form from the input material
same,moisture uptake by DVS,[2],ca. 4.6%
same,KF moisture (water) content,[3],0.94%
same,XRPD after thermodynamic solubility studies,[4],no change from the input material
same,"XRPD after salt disproportionation study, 48 hours",[5],no change from the input material
same,measured pH after slurrying in water,[5],2.32
"O=C(c1ccc(Oc2ccccc2)cc1Cl)c1c[nH]c2ncnc(N[C@@H]3CC[C@@H](CO)OC3)c12 [Form 1, (2-chloro-4-phenoxyphenyl)(4-(((3R,6S)-6-(hydroxymethyl)tetrahydro-2H-pyran-3-yl)amino)-7H-pyrrolo[2,3-d]pyrimidin-5-yl)methanone]",Purity after 1 week (%),"[1]; 40° C./75% RH, 1 week",99.4%
same,Purity after 1 week (%),"[1]; 80° C., 1 week",99.4%
same,Purity after 1 week (%),"[1]; Ambient, 1 week",99.3%
same,T = 0 purity (%),[1],99.3%
same,area % purity and form changes after 1 week,[1]; 1 week,no decrease in area % purity or form changes
same,Stability testing,[1]; cell wraps: No drop in purity or change in form,No drop in purity
same,"area % purity and form changes, long term storage",[6],no decrease in area % purity or form changes
same,Chemical Purity (% AUC),[6]; 0 months,98.9 % AUC
same,Crystallinity (XRPD),[6]; 0 months,Form 1
same,Water Content (KF) (%),[6]; 0 months,0.16%
same,Chemical Purity (% AUC),[6]; 1 month,98.8 % AUC
same,Water Content (KF) (%),[6]; 1 month,0.28%
same,Chemical Purity (% AUC),[6]; 3 months,98.8 % AUC
same,Water Content (KF) (%),[6]; 3 months,0.41%
same,Chemical Purity (% AUC),[6]; 6 months,98.9 % AUC
same,Crystallinity (XRPD),[6]; 6 months,Form 1
same,Water Content (KF) (%),[6]; 6 months,0.47%
same,Chemical Purity (% AUC),[6]; 9 months,98.9 % AUC
same,Water Content (KF) (%),[6]; 9 months,0.29%
same,Chemical Purity (% AUC),[6]; 12 months,98.8 % AUC
same,Crystallinity (XRPD),[6]; 12 months,Form 1
same,Water Content (KF) (%),[6]; 12 months,0.46%
same,Chemical Purity (% AUC),[6]; 18 months,99.0 % AUC
same,Water Content (KF) (%),[6]; 18 months,0.49%
same,Chemical Purity (% AUC),[6]; 24 months,98.9 % AUC
same,Crystallinity (XRPD),[6]; 24 months,Form 1
same,Water Content (KF) (%),[6]; 24 months,0.37%
same,Solubility (mg/mL),"Aqueous solubility; Water, ambient temperature, ca. 24 hours",API not detected
same,Form,"Aqueous solubility; XRPD of damp solid after slurrying in Water, AXRPD: Amorphous by XRPD, but limited material for analysis",Form 1
same,XRPD post aqueous solubility,"Aqueous solubility; amorphous: Form 1 from solubility screen, Form 8: Amorphous, limited material",Form 1
same,aqueous solubility,"Aqueous solubility; deionized water, ambient temperature, ca. 24 hours",not soluble
same,aqueous solubility,"Aqueous solubility; summary Table 11, HPLC of filtrate",API not detected
same,hygroscopic nature by GVS,[7],non-hygroscopic
same,Post-GVS analysis (form),[7]; after exposure to elevated humidity,remain Form 1
same,uptake by GVS,[7]; at 90% RH,< 0.2%
same,XRPD post GVS,[7]; cell wraps: Remained | unchanged,Remained
same,GVS (hygroscopicity),[7]; summary Table 11,<0.2% uptake
same,Chemical Purity (% Area),[8]; 0 months,98.9 % Area
same,Crystallinity (XRPD),[8]; 0 months,Form 1
same,Water Content (KF) (%),[8]; 0 months,0.16%
same,Chemical Purity (% Area),[8]; 1 month,98.8 % Area
same,Water Content (KF) (%),[8]; 1 month,0.36%
same,Chemical Purity (% Area),[8]; 3 months,98.8 % Area
same,Water Content (KF) (%),[8]; 3 months,0.53%
same,Chemical Purity (% Area),[8]; 6 months,98.9 % Area
same,Crystallinity (XRPD),[8]; 6 months,Form 1
same,Water Content (KF) (%),[8]; 6 months,0.57%
same,"area % purity and form changes, accelerated storage",[8]; 6 months,no decrease in area % purity or form changes
same,relative stability of the form,Competitive slurrying,thermodynamically more stable form
same,Form,"Acetone solubility; XRPD of damp solid after slurrying in Acetone, *Small amount of material analyzed",Form 2*
same,Solubility,Acetone solubility; [10],12.3 mg/mL
same,solid form after slurrying in acetone (XRPD),Acetone solubility; [10],conversion to Form 2
same,solubility at 24 h,"Acetone solubility; acetone, organic solvent or mixture, thermodynamic from solid, summary Table 11, read-out: Acetone solubility",12.3 mg/mL
same,Acetone solubility: residual solid,"Acetone solubility; form of residual solid, amorphous input: Form 2 residual solid with additional peaks",(Form 2 residual
"O=C(c1ccc(Oc2ccccc2)cc1Cl)c1c[nH]c2ncnc(N[C@@H]3CC[C@@H](CO)OC3)c12 [Form 10, (2-chloro-4-phenoxyphenyl)(4-(((3R,6S)-6-(hydroxymethyl)tetrahydro-2H-pyran-3-yl)amino)-7H-pyrrolo[2,3-d]pyrimidin-5-yl)methanone]",VT-XRPD form upon heating to 150° C.,[9]; 150° C.,persisted upon heating to 150 °C with poor crystallinity
same,VT-XRPD form at 230° C.,[9]; 230° C.,became amorphous
same,Identity,"[9]; VT-XRPD Run 1, Temp 30° C.",Form 10
same,Identity,"[9]; VT-XRPD Run 2, Temp 150° C.",Form 10
same,Identity,"[9]; VT-XRPD Run 3, Temp 200° C., two forms printed in two cells",Form 10; also recorded: Form 12
same,Identity,"[9]; VT-XRPD Run 4, Temp 210° C.",Form 12
same,Identity,"[9]; VT-XRPD Run 5, Temp 230° C.",Amorphous
same,Identity,"[9]; VT-XRPD Run 6, Temp 30° C.",Amorphous
same,VT-XRPD form between ca. 200° C. and ca. 210° C.,[9]; ca. 200° C. to ca. 210° C.,converted to Form 12
same,VT-XRPD form upon cooling to 30° C.,[9]; cooling to 30° C.,remained amorphous
same,hygroscopic nature by DVS,[2],slightly hygroscopic
same,Post-DVS XRPD analysis (form),[2],"no change in form, but reduction in crystallinity"
same,moisture uptake by DVS,[2],0.94%
same,KF moisture (water) content,[3],1.48%
same,KF water content in equivalents,[3],0.4 equivalents
